Reference: patent publication US20160039904A1, “STABILIZED SINGLE HUMAN CD4 DOMAINS AND FUSION PROTEINS” (priority 2013, published 2016)
Read-outs that look alike come from different tables or passages of the source.

Tests used:
HIV-1 GXE = test: Pseudotyped HIV-1 neutralization (HOS-CD4-CCR5 cells); assay type: cell-based; conditions: Table 3, clade E, R5
Protocol: (§1) To determine the potency and breadth of HIV-1 neutralization by the D1 mutants, viruses pseudotyped with Envs from HIV-1 isolates representing clades A-E and using either CCR5 (R5) or CXCR4 (X4) or both (R5X4) as a coreceptor were included. Pseudoviruses were derived from 293T cells and a neutralization assay was performed in duplicate using HOS-CD4-CCR5 (for all R5 and dual tropic viruses) or HOS-CD4-CXCR4 cell lines as described in Chen et al., Proc. Natl. Acad. Sci. USA, 105: 17121-17126 (2008)). Luminescence was measured 48 hours post-infection and the percentage neutralization was calculated by the following formula: (1—average RLU of inhibitor-containing wells/average RLU or virus-only wells)×100.

HIV-1 JRFL = test: as above; assay type: cell-based; conditions: R5
Protocol: as §1

[1] = test system: HIV-1 pseudotyped with Envs from different clades; test: Pseudotyped HIV-1 neutralization, means over the panel of Table 3; assay type: cell-based; conditions: all viruses, <[…] assigned 0.01, 2G12: 10 isolates significantly neutralized
Protocol: as §1

HIV-1 Env Bal = test: HIV-1 Env-mediated cell-cell fusion; assay type: cell-based; conditions: R5
HIV-1 KNH1088.EC5 = test: TZM-bl cell-based neutralization assay; conditions: Table 6; KNH1088.EC5, clade A, R5
HIV-1 KNH1144.EC1 = test: TZM-bl cell-based neutralization assay; conditions: Table 6; KNH1144.EC1, clade A, R5
HIV-1 Bal.EC1 TC = test: TZM-bl cell-based neutralization assay; conditions: Table 6, clade B, R5
HIV-1 GS-015.EC12 = test: TZM-bl cell-based neutralization assay; conditions: Table 6; GS-015.EC12, clade C, R5
HIV-1 PBL286.VRC36aPV = test: TZM-bl cell-based neutralization assay; conditions: Table 6, clade C, R5
HIV-1 A07412VRC12A = test: TZM-bl cell-based neutralization assay; conditions: Table 6, clade D, R5
HIV-1 CAM0015BBY.EC3 = test: TZM-bl cell-based neutralization assay; conditions: Table 6; CAM0015BBY.EC3, clade AG, R5
[2] = test system: HIV-1 isolates from clades A to D, AE, and AG; test: TZM-bl cell-based neutralization assay, means over the panel (n=12); conditions: Table 6, all viruses, >167 nM assigned 200, >250 assigned 300
[3] = Dynamic light scattering (aggregation); assay type: physicochemical
Protocol: To test whether soluble aggregates of 4Dm2m and 6Dm2m formed during prolonged incubation, dynamic light scattering (DLS) was used. Proteins concentrated to 10 mg/ml in PBS were stored at […] and slowly thawed on ice before measurements.

[4] = Stability against degradation in PBS at 37° C. (binding activity to gp140Con-s); assay type: physicochemical
[5] = next 5 days of incubation (days 5-10), 37° C.
Protocol: The proteins were then assessed for their stability against degradation during 15 days of incubation with PBS (see FIG. 12A) or human serum (see FIG. 12B) at 37° C.

4Dm2m: bispecific multivalent fusion protein of mD1.22 and m36.4; two SEQ ID NO: 20 and two SEQ ID NO: 21 chains
IC50 (HIV-1 GXE): 0.83 ± 0.11 nM
IC90 (HIV-1 GXE): 8.2 ± 1.3 nM
IC50 (HIV-1 JRFL; Table 2, clade B): 0.06 nM
IC90 (HIV-1 JRFL; Table 2, clade B): 0.29 nM
IC50 (HIV-1 JRFL; Table 3, clade B): 0.14 ± 0.01 nM
IC90 (HIV-1 JRFL; Table 3, clade B): 0.39 ± 0.04 nM
IC50, arithmetic mean [1]: 0.22 nM
IC50, geometric mean [1]: 0.12 nM
IC90, arithmetic mean [1]: 1.6 nM
IC90, geometric mean [1]: 0.56 nM
IC50 (HIV-1 Env Bal; Table 4, clade B): 4.1 nM
IC50 (HIV-1 Env Bal; Table 5, clade B): 4.1 ± 0.1 nM
IC50 (HIV-1 KNH1088.EC5): 0.48 nM
IC50 (HIV-1 KNH1144.EC1): 0.081 nM
IC90 (HIV-1 KNH1144.EC1): 1 nM
IC50 (HIV-1 Bal.EC1 TC): 0.057 nM
IC90 (HIV-1 Bal.EC1 TC): 0.22 nM
IC50 (HIV-1 GS-015.EC12): 0.022 nM
IC50 (HIV-1 PBL286.VRC36aPV): 2 nM
IC50 (HIV-1 A07412VRC12A): 0.75 nM
IC90 (HIV-1 A07412VRC12A): 5.7 nM
IC50 (HIV-1 CAM0015BBY.EC3): 0.72 nM
IC90 (HIV-1 CAM0015BBY.EC3): 7.4 nM
IC50 ([2]; read-out: IC50, arithmetic mean): 0.72 nM
IC50 ([2]; read-out: IC50, geometric mean): 0.28 nM
IC90 ([2]; read-out: IC90, geometric mean): 2.4 nM
aggregation propensity [3]: low aggregation propensity
aggregation during incubation (DLS) ([3]; 10 mg/ml in PBS, 4° C. and 37° C.): disappeared within the first day of incubation
average diameter of particles (DLS) ([3]; 10 mg/ml in PBS, after freeze-thaw, predominantly small particles): 16.3 nm
remained functional ([4]; end of 15 days of incubation with PBS): about 90%
amount of functional protein ([4]; incubation in PBS for 10 days): no significant decrease
degradation in human serum [5]: slower than that of CD4-Ig
